{"source": "paper PMC2667211", "about": "“Kinase Domain Insertions Define Distinct Roles of CLK Kinases in SR Protein Phosphorylation” (Structure(London, England:1993), 2009)", "key": {"CLK1": {"target": "CLK1 (Homo sapiens, UniProt P49759)", "sequence (P49759 148-484)": "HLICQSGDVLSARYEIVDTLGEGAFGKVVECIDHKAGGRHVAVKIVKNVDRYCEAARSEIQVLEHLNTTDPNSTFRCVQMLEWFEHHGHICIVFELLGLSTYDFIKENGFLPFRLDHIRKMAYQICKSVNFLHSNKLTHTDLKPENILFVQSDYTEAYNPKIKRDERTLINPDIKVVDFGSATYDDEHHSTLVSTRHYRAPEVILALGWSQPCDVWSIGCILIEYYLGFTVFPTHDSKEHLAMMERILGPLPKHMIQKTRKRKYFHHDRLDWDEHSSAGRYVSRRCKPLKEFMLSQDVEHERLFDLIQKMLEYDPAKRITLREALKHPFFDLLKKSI", "assay": "coupled-enzyme kinase assay at […] inhibitor; thermal shift […]°C", "assay_type": "biochemical"}, "CLK3": {"target": "T1, CLK3 (Homo sapiens, UniProt P49761)", "T1 construct": "kinase domain, residues 127–484", "T1 sequence (P49761 127-484)": "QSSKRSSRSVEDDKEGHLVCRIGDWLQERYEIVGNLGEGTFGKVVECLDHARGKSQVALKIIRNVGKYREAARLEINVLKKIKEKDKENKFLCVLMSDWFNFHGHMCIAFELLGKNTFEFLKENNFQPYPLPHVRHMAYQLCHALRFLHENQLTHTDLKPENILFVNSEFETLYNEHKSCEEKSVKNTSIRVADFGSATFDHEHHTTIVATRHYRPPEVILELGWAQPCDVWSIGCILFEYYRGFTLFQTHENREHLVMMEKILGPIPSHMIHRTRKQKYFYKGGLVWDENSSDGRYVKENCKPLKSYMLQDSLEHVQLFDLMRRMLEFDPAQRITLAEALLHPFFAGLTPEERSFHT", "assay": "kinase assay at […] inhibitor; thermal shift screening", "assay_type": "biochemical"}}, "data": [{"smiles": "Nc1nc(Nc2ccc(S(N)(=O)=O)cc2)nn1C(=S)Nc1c(F)cccc1F", "note": "[compound 11, CDK1/2 inhibitor]", "values": [{"measurement": "% activity at 100 nM", "setting": "CLK1", "value": "< 1"}, {"measurement": "% activity at 100 nM", "setting": "CLK3", "value": "< 50"}]}]}
